Laboratory results published in PubChem BioAssay AID330 (DTP/NCI, 2004).
Several values for one entry are separate records, joined by “and”; a condition that tells them apart may be missing. Equal values may be shown once. Toxic doses and inconclusive results are not listed. The calls were made as follows: active = survival T/C of 150% or more; inactive = T/C below 125% in these data.

System: P388 leukemia ip, CD2F1 mice, survival T/C
Assay: NCI In Vivo Anticancer Drug Screen. Data for tumor model P388 Leukemia (intraperitoneal) in CD2F1 (CDF1) mice
Conditions: endpoint: median survival time, higher = longer survival
Procedure, shortened: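 Mice carrying the transplanted tumor received test compound or vehicle. Survival was recorded in each group, and the value is the treated-group measurement divided by that of the vehicle-treated control group.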

[1] = dose: 50.0 mg/kg/injection, schedule: Q01DX009 (ip), vehicle: saline with Tween-80
[2] = dose: 100.0 mg/kg/injection, schedule: Q01DX009 (ip), vehicle: saline with Tween-80
[3] = dose: 200.0 mg/kg/injection, schedule: Q01DX009 (ip), vehicle: saline with Tween-80
[4] = dose: 50.0 mg/kg/injection, schedule: Q01DX009 (ip), vehicle: Klucel (hydroxypropylcellulose) (HPC)
[5] = dose: 100.0 mg/kg/injection, schedule: Q01DX009 (ip), vehicle: Klucel (hydroxypropylcellulose) (HPC)
[6] = dose: 50.0 mg/kg/injection, schedule: Q01DX009 (ip), vehicle: saline
[7] = dose: 100.0 mg/kg/injection, schedule: Q01DX009 (ip), vehicle: saline
[8] = dose: 200.0 mg/kg/injection, schedule: Q01DX009 (ip), vehicle: saline
[9] = dose: 60.0 mg/kg/injection, schedule: Q01DX005 (ip), vehicle: saline with Tween-80
[10] = dose: 120.0 mg/kg/injection, schedule: Q01DX005 (ip), vehicle: saline with Tween-80
[11] = dose: 240.0 mg/kg/injection, schedule: Q01DX005 (ip), vehicle: saline with Tween-80
[12] = dose: 12.5 mg/kg/injection, schedule: Q01DX005 (ip), vehicle: saline with Tween-80
[13] = dose: 25.0 mg/kg/injection, schedule: Q01DX005 (ip), vehicle: saline with Tween-80
[14] = dose: 50.0 mg/kg/injection, schedule: Q01DX005 (ip), vehicle: saline with Tween-80
[15] = dose: 100.0 mg/kg/injection, schedule: Q01DX005 (ip), vehicle: saline with Tween-80
[16] = dose: 100.0 mg/kg/injection, schedule: Q04DX002 (ip), vehicle: saline with Tween-80

Measured: T/C

COc1ccc(CCNC(=O)Cc2ccc3cc(OC)c(OC)cc3c2)cc1OC
inactive: [1] 120 % of control | [2] 100 % of control | [3] 90 % of control

CN(C)C1=NC(NCc2ccccc2)(N(C)C)OC(N(C)C)=N1 (stereo not given)
inactive: dose: 25.0 mg/kg/injection, schedule: Q01DX005 (ip), vehicle: saline 107 % of control | dose: 50.0 mg/kg/injection, schedule: Q01DX005 (ip), vehicle: saline 96 % of control

CC(=O)O.[Pb]
inactive: dose: 25.0 mg/kg/injection, schedule: Q04DX003 (ip), vehicle: saline with Tween-80 100 % of control | dose: 50.0 mg/kg/injection, schedule: Q04DX003 (ip), vehicle: saline with Tween-80 100 % of control | dose: 100.0 mg/kg/injection, schedule: Q04DX003 (ip), vehicle: saline 91 % of control

Nc1cccc(SC2CC(=O)N(c3ccc(Cl)cc3C(=O)c3ccccc3)C2=O)c1 (stereo not given)
inactive: [4] 105 % of control | [5] 99 % of control | dose: 200.0 mg/kg/injection, schedule: Q01DX009 (ip), vehicle: Klucel (hydroxypropylcellulose) (HPC) 89 % of control

COCC/C(COC)=N\N=C(/CCOC)COC
inactive: [2] 109 % of control | dose: 100.0 mg/kg/injection, schedule: Q04DX003 (ip), vehicle: saline sonified 104 % of control | dose: 200.0 mg/kg/injection, schedule: Q04DX003 (ip), vehicle: saline sonified 100 % of control | dose: 400.0 mg/kg/injection, schedule: Q04DX003 (ip), vehicle: saline sonified 104 % of control

O=C(O)c1cc(N2C(=O)c3ccc4c5ccc6c7c(ccc(c8ccc(c3c48)C2=O)c75)C(=O)N(c2ccc(O)c(C(=O)O)c2)C6=O)ccc1O
inactive: [6] 98 % of control | [7] 91 % of control | [8] 90 % of control

COC(=O)C1=[N+]([O-])c2ccccc2C1C(O)C(=O)OC (stereo not given)
inactive: [9] 98 % of control | [10] 93 % of control | [11] 98 % of control

O=C1CC([Se]c2ccccc2)C(=O)N1 (stereo not given)
inactive: dose: 6.25 mg/kg/injection, schedule: Q04DX003 (ip), vehicle: Klucel (hydroxypropylcellulose) (HPC) 99 % of control | dose: 12.5 mg/kg/injection, schedule: Q04DX003 (ip), vehicle: Klucel (hydroxypropylcellulose) (HPC) 102 % of control and 104 % of control | dose: 25.0 mg/kg/injection, schedule: Q04DX003 (ip), vehicle: Klucel (hydroxypropylcellulose) (HPC) 100 % of control and 107 % of control | dose: 50.0 mg/kg/injection, schedule: Q04DX003 (ip), vehicle: Klucel (hydroxypropylcellulose) (HPC) 100 % of control and 105 % of control

CCO/C=C1/N=C(c2cc(Cl)cc([N+](=O)[O-])c2)OC1=O
inactive: [9] 101 % of control | [10] 101 % of control | [11] 93 % of control

CN=C1C=CC(=C(c2ccc(N(C)C)cc2)c2ccc(N(C)C)cc2)C=C1
inactive: dose: 6.25 mg/kg/injection, schedule: Q01DX005 (ip), vehicle: Klucel (hydroxypropylcellulose) (HPC) 119 % of control

CC#CC#C/C=C1/C=CC2(CC=CO2)O1 (stereo not given)
inactive: dose: 12.5 mg/kg/injection, schedule: Q01DX009 (ip), vehicle: Klucel (hydroxypropylcellulose) (HPC) 107 % of control | dose: 25.0 mg/kg/injection, schedule: Q01DX009 (ip), vehicle: Klucel (hydroxypropylcellulose) (HPC) 106 % of control | [4] 111 % of control | [5] 114 % of control

CC(=O)OCCS(CCOC(C)=O)=NS(=O)(=O)c1ccc(C)cc1
inactive: [6] 108 % of control | [7] 108 % of control | [8] 106 % of control

CN(C)c1nc2c(N)ncnc2n1C1OC(CO)C(O)C1O (stereo not given)
inactive: [12] 100 % of control and 106 % of control | [13] 103 % of control and 106 % of control | [14] 112 % of control and 113 % of control | [15] 123 % of control

CC(C)(C)NCC(O)COc1cccc2c1CCC(=O)N2 (stereo not given)
inactive: [1] 100 % of control | [2] 102 % of control | [3] 97 % of control

Brc1cc(Br)c(I)c(Br)c1
inactive: dose: 100.0 mg/kg/injection, schedule: Q04DX003 (ip), vehicle: other 95 % of control | dose: 200.0 mg/kg/injection, schedule: Q04DX003 (ip), vehicle: other 100 % of control | dose: 400.0 mg/kg/injection, schedule: Q04DX003 (ip), vehicle: other 100 % of control

CN(C)P(=O)(OCC12C=C(OP(=O)(N(C)C)N(C)C)CC1(COP(=O)(N(C)C)N(C)C)C1CCC2C1)N(C)C (stereo not given)
inactive: dose: 60.0 mg/kg/injection, schedule: Q01DX005 (ip), vehicle: saline 101 % of control | dose: 120.0 mg/kg/injection, schedule: Q01DX005 (ip), vehicle: saline 98 % of control | dose: 240.0 mg/kg/injection, schedule: Q01DX005 (ip), vehicle: saline 102 % of control

CC1=C(C)CN2CC(C#N)=C(N)C2C1 (stereo not given)
inactive: [14] 107 % of control | [15] 96 % of control | dose: 200.0 mg/kg/injection, schedule: Q01DX005 (ip), vehicle: saline with Tween-80 96 % of control

Cc1cc2nc(CC(O)(C(F)(F)F)C(F)(F)F)oc2cc1C
inactive: dose: 100.0 mg/kg/injection, schedule: Q04DX003 (ip), vehicle: saline with Tween-80 95 % of control | dose: 200.0 mg/kg/injection, schedule: Q04DX003 (ip), vehicle: saline with Tween-80 95 % of control | dose: 400.0 mg/kg/injection, schedule: Q04DX003 (ip), vehicle: saline with Tween-80 100 % of control

CCCCCCCCCCCCCCCCCCOC(=O)C(N)Cc1ccc(O)cc1 (stereo not given)
inactive: dose: 60.0 mg/kg/injection, schedule: Q01DX005 (ip), vehicle: Klucel (hydroxypropylcellulose) (HPC) 106 % of control | dose: 120.0 mg/kg/injection, schedule: Q01DX005 (ip), vehicle: Klucel (hydroxypropylcellulose) (HPC) 101 % of control | dose: 240.0 mg/kg/injection, schedule: Q01DX005 (ip), vehicle: Klucel (hydroxypropylcellulose) (HPC) 105 % of control

COc1cc(/C=C/c2ccnnc2)cc(OC)c1OC
inactive: [6] 97 % of control | [7] 94 % of control | [8] 87 % of control

O=C(OCCN1CCN(CCOC(=O)C(Cl)(c2ccccc2)c2ccccc2)CC1)C(Cl)(c1ccccc1)c1ccccc1
inactive: dose: 6.25 mg/kg/injection, schedule: Q01DX005 (ip), vehicle: saline with Tween-80 95 % of control | [12] 93 % of control | [13] 95 % of control | [15] 90 % of control

COC1C(CN(C)N=Nc2ccccc2C(N)=O)OC2OC(C)(C)OC21 (stereo not given)
inactive: [16] 94 % of control | dose: 200.0 mg/kg/injection, schedule: Q04DX002 (ip), vehicle: saline with Tween-80 91 % of control | dose: 400.0 mg/kg/injection, schedule: Q04DX002 (ip), vehicle: saline with Tween-80 91 % of control

Oc1cc(CN2CCCCC2)c(O)cc1CN1CCCCC1
inactive: dose: 3.12 mg/kg/injection, schedule: Q01DX009 (ip), vehicle: saline 106 % of control | dose: 6.25 mg/kg/injection, schedule: Q01DX009 (ip), vehicle: saline 106 % of control | dose: 12.5 mg/kg/injection, schedule: Q01DX009 (ip), vehicle: saline 98 % of control | dose: 25.0 mg/kg/injection, schedule: Q01DX009 (ip), vehicle: saline 104 % of control

Cc1ccc(N2C(=O)N(c3ccc(C)cc3)C3(Sc4ccccc4N3C)C2=O)cc1 (stereo not given)
inactive: dose: 25.0 mg/kg/injection, schedule: Q04DX002 (ip), vehicle: saline with Tween-80 95 % of control | dose: 50.0 mg/kg/injection, schedule: Q04DX002 (ip), vehicle: saline with Tween-80 92 % of control | [16] 89 % of control

CN(C)c1ccc(C(=C2C=CC(=[N+](C)c3ccccc3)c3ccccc32)c2ccc(N(C)C)cc2)cc1
inactive: dose: 1.56 mg/kg/injection, schedule: Q01DX005 (ip), vehicle: saline with Tween-80 116 % of control

CN=C(NC)c1ccc(NC(=O)/C=C/C(=O)Nc2ccc(C(=NC)NC)cc2)cc1
inactive: [12] 101 % of control | [13] 99 % of control | [14] 98 % of control and 103 % of control

CCCCCCCCCCNCCS
inactive: dose: 5.0 mg/kg/injection, schedule: Q01DX009 (ip), vehicle: saline 91 % of control | dose: 10.0 mg/kg/injection, schedule: Q01DX009 (ip), vehicle: saline 91 % of control | dose: 20.0 mg/kg/injection, schedule: Q01DX009 (ip), vehicle: saline 95 % of control

CC(C)(C)OC(=O)NC(CC(=O)OCc1ccccc1)C(=O)ON1C(=O)CCC1=O (stereo not given)
inactive: dose: 50.0 mg/kg/injection, schedule: Q01DX005 (ip), vehicle: Klucel (hydroxypropylcellulose) (HPC) 106 % of control | dose: 100.0 mg/kg/injection, schedule: Q01DX005 (ip), vehicle: Klucel (hydroxypropylcellulose) (HPC) 106 % of control | dose: 200.0 mg/kg/injection, schedule: Q01DX005 (ip), vehicle: Klucel (hydroxypropylcellulose) (HPC) 97 % of control
